According to ChEMBL document CHEMBL3612021, “Structure-kinetics relationships of Capadenoson derivatives as adenosine A1 receptor agonists” (Eur J Med Chem, 2015):

Target: T1, Adenosine receptor A1 (Homo sapiens) (UniProt P30542)
T1 sequence (whole entry): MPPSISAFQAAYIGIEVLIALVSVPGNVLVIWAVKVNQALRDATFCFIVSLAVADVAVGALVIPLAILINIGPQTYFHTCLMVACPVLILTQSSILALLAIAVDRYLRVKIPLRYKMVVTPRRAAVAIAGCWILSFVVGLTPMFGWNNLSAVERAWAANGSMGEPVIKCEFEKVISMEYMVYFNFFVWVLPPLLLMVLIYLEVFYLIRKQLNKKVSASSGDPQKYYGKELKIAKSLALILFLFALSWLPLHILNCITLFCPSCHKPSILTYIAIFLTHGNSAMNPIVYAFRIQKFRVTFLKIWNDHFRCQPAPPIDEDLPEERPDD
Assay: Displacement of [3H]DPCPX from human adenosine A1 receptor expressed in CHO cell membranes at 1 uM by competition association assay

| SMILES | inhibition |
| --- | --- |
| N#Cc1c(N)nc(SCc2csc(-c3ccc4c(c3)OCO4)n2)nc1-c1ccc2c(c1)OCO2 | > 80% |
| N#Cc1c(NC2CCCC2)nc(SCc2csc(-c3ccc(Cl)cc3)n2)nc1-c1ccc2c(c1)OCO2 | < 80% |
| N#Cc1c(N)nc(SCc2coc(-c3ccc(Cl)cc3)n2)nc1-c1ccc2c(c1)OCO2 | > 80% |
| N#Cc1c(N)nc(SCc2coc(-c3cccc(F)c3)n2)nc1-c1ccc2c(c1)OCO2 | > 80% |
| C#CCNc1nc(SCc2csc(-c3ccc(Cl)cc3)n2)cc(-c2ccc3c(c2)OCO3)c1C#N | > 80% |
| Cc1ccc(-c2nc(CSc3nc(N)c(C#N)c(-c4ccc(O)cc4)c3C#N)cs2)cc1 | > 80% |
| N#Cc1c(N)nc(SCc2csc(-c3ccc(Cl)cc3)n2)nc1-c1ccc(OC(F)(F)F)cc1 | > 80% |
| CCNc1nc(SCc2csc(-c3ccc(Cl)cc3)n2)cc(-c2ccc3c(c2)OCO3)c1C#N | > 80% |
| N#Cc1c(-c2ccc3c(c2)OCO3)cc(SCc2csc(-c3ccc(Cl)cc3)n2)nc1NC1CC1 | > 80% |
| N#Cc1c(N)nc(SCc2csc(-c3ccc(Br)cc3)n2)c(C#N)c1-c1ccc(O)cc1 | > 80% |
| CN(C)c1ccc(-c2nc(SCc3csc(-c4ccc(Cl)cc4)n3)nc(N)c2C#N)cc1 | > 80% |
| N#Cc1c(N)nc(SCc2csc(-c3ccccc3Cl)n2)c(C#N)c1-c1ccc(O)cc1 | > 80% |
| N#Cc1c(N)nc(SCc2csc(-c3ccc(Cl)cc3)n2)nc1-c1ccccc1 | > 80% |
| N#Cc1c(N)nc(SCc2csc(-c3ccc(C(F)(F)F)cc3)n2)nc1-c1ccc2c(c1)OCO2 | > 80% |
| N#Cc1c(N)nc(SCc2csc(-c3ccc([N+](=O)[O-])cc3)n2)nc1-c1ccc2c(c1)OCO2 | > 80% |
| N#Cc1c(N)nc(SCc2csc(-c3ccc(F)cc3)n2)nc1-c1ccc2c(c1)OCO2 | > 80% |
| COc1ccc(-c2nc(SCc3coc(-c4cccc(F)c4)n3)nc(N)c2C#N)cc1 | < 80% |
| CC(C)Nc1nc(SCc2csc(-c3ccc(Cl)cc3)n2)nc(-c2ccc3c(c2)OCO3)c1C#N | < 80% |

| SMILES | inhibition |
| --- | --- |
| N#Cc1c(N)nc(SCc2ccccc2[N+](=O)[O-])nc1-c1ccccc1 | > 80% |
| N#Cc1c(NCCCCc2ccccc2)nc(SCc2csc(-c3ccc(Cl)cc3)n2)nc1-c1ccc2c(c1)OCO2 | < 80% |
| N#Cc1c(N)nc(SCc2cscn2)nc1-c1ccc2c(c1)OCO2 | > 80% |
| Cc1ccc(-c2nc(SCc3csc(-c4ccc(Cl)cc4)n3)nc(N)c2C#N)cc1 | < 80% |
| N#Cc1c(N)nc(SCc2csc(-c3ccc(Cl)c(Cl)c3)n2)nc1-c1ccc2c(c1)OCO2 | > 80% |
| CNc1nc(SCc2csc(-c3ccc(Cl)cc3)n2)cc(-c2ccc3c(c2)OCO3)c1C#N | > 80% |
| N#Cc1c(NCC(c2ccccc2)c2ccccc2)nc(SCc2csc(-c3ccc(Cl)cc3)n2)nc1-c1ccc2c(c1)OCO2 | < 80% |
| N#Cc1c(N)nc(SCc2csc(-c3cccc(F)c3)n2)c(C#N)c1-c1ccc(O)cc1 | > 80% |
| COc1ccc(-c2nc(SCc3csc(-c4ccc(Cl)cc4)n3)nc(N)c2C#N)cc1 | < 80% |
| N#Cc1c(N)nc(SCc2csc(-c3cccc(Cl)c3)n2)nc1-c1ccc2c(c1)OCO2 | > 80% |
| CC(=O)Nc1ccc(-c2nc(SCc3cccc(CCC(=O)N4CCN(CCN5CCCC5)CC4)n3)nc(N)c2C#N)cc1 | < 80% |
| N#Cc1c(N)nc(SCc2csc(-c3ccccc3F)n2)c(C#N)c1-c1ccc(O)cc1 | > 80% |
| N#Cc1c(N)nc(SCc2csc(-c3ccc(I)cc3)n2)nc1-c1ccc2c(c1)OCO2 | > 80% |
| CN(C)CCNc1nc(SCc2csc(-c3ccc(Cl)cc3)n2)nc(-c2ccc3c(c2)OCO3)c1C#N | < 80% |
| N#Cc1c(N)nc(SCc2csc(-c3ccc(Cl)cc3)n2)nc1-c1ccc(O)cc1 | > 80% |
| COc1ccc(-c2c(C#N)c(N)nc(SCc3coc(-c4ccc(F)cc4)n3)c2C#N)cc1 | > 80% |
| CC(=O)Nc1ccc(-c2nc(SCc3cccc(CCC(=O)N4CCN(CCCCN5CCC(C)CC5)CC4)n3)nc(N)c2C#N)cc1 | < 80% |
| COc1ccc(-c2c(C#N)c(N)nc(SCc3coc(-c4ccc(Cl)cc4)n3)c2C#N)cc1 | > 80% |
